# Active and inactive are the calls of the source. No cut-off for these calls is given here.
# Key:
# Proteus vulgaris [1] = experiment: Bactericidal activity against Proteus vulgaris NCTC 4635 cultured in MH medium assessed as reduction in bacterial survival incubated for 48 hrs by microbroth dilution method; type: functional; conditions: NCTC 4635, 48 h
# Staphylococcus aureus [2] = experiment: Bactericidal activity against methicillin resistant Staphylococcus aureus 6347 cultured in MH medium assessed as reduction in bacterial survival incubated for 48 hrs by microbroth dilution method; type: functional; conditions: Staphylococcus aureus, 6347, 48 h
# Staphylococcus aureus [3] = experiment: Biofilm degradation activity against Staphylococcus aureus ATCC 6538 assessed as biofilm formation at 2 times antibacterial MIC incubated for 24 hrs compound added post-biofilm formation by total biomass crystal violet staining-based method; type: functional
# HEK293 [4] = experiment: Cytotoxicity against human HEK293 cells assessed as changes in cell morphology upto 20 uM incubated for 72 hrs by MTT assay; type: cell-based; conditions: hek293, 72 h
# Proteus vulgaris [5] = experiment: Antibacterial activity against Proteus vulgaris NCTC 4635 cultured in MH medium assessed as reduction in bacterial growth incubated for 48 hrs by microbroth dilution method; type: functional; conditions: NCTC 4635, 48 h
# [6] = test system: Staphylococcus epidermidis; experiment: Bactericidal activity against Staphylococcus epidermidis ATCC 14990 cultured in MH medium assessed as reduction in bacterial survival incubated for 48 hrs by microbroth dilution method; type: functional; conditions: ATCC 14990, 48 h
# Streptococcus pneumoniae [7] = experiment: Bactericidal activity against Streptococcus pneumoniae cultured in MH medium assessed as reduction in bacterial survival incubated for 48 hrs by microbroth dilution method; type: functional
# [8] = test system: Staphylococcus epidermidis; experiment: Bactericidal activity against methicillin resistant Staphylococcus epidermidis ATCC 13199 cultured in MH medium assessed as reduction in bacterial survival incubated for 48 hrs by microbroth dilution method; type: functional; conditions: ATCC 13199, 48 h
# Pseudomonas aeruginosa [9] = experiment: Biofilm degradation activity against Pseudomonas aeruginosa ATCC 9027 assessed as biofilm formation at antibacterial MIC incubated for 24 hrs compound added post-biofilm formation by total biomass crystal violet staining-based method; type: functional
# Pseudomonas aeruginosa [10] = experiment: Bactericidal activity against Pseudomonas aeruginosa ATCC 9027 cultured in MH medium assessed as reduction in bacterial survival incubated for 48 hrs by microbroth dilution method; type: functional; conditions: ATCC 9027, 48 h
# Pseudomonas aeruginosa [11] = experiment: Antibiofilm activity against Pseudomonas aeruginosa ATCC 9027 assessed as biofilm formation at 0.5 times antibacterial MIC incubated for 24 hrs compound added prior to bacterial biofilm formation by total biomass crystal violet staining-based method relative to control; type: functional
# Enterococcus hirae = experiment: Antibacterial activity against Enterococcus hirae ATCC 1052 cultured in BHI medium assessed as reduction in bacterial growth incubated for 48 hrs by microbroth dilution method; type: functional; conditions: ATCC 1052, 48 h
# [12] = molecular target: T1, DNA gyrase (Escherichia coli) (UniProt P0AES6+P0AES4); experiment: Inhibition of Escherichia coli DNA gyrase super-coiling activity using relaxed pNO1 DNA as substrate assessed as enzyme residual activity at 1 uM incubated for 30 mins by fluorescence assay relative to control; type: protein-complex assay
# [13] = molecular target: T1, DNA gyrase (Escherichia coli); experiment: Inhibition of Escherichia coli DNA gyrase super-coiling activity using relaxed pNO1 DNA as substrate assessed as enzyme residual activity at 10 uM incubated for 30 mins by fluorescence assay relative to control; type: protein-complex assay
# Staphylococcus aureus [14] = experiment: Antibiofilm activity against Staphylococcus aureus ATCC 6538 assessed as biofilm formation at antibacterial MIC incubated for 24 hrs compound added prior to bacterial biofilm formation by total biomass crystal violet staining-based method relative to control; type: functional
# Serratia marcescens = experiment: Bactericidal activity against Serratia marcescens ATCC 12795 cultured in MH medium assessed as reduction in bacterial survival incubated for 48 hrs by microbroth dilution method; type: functional; conditions: ATCC 12795, 48 h
# Staphylococcus aureus [15] = experiment: Bactericidal activity against Staphylococcus aureus ATCC 6538 cultured in MH medium assessed as reduction in bacterial survival incubated for 48 hrs by microbroth dilution method; type: functional; conditions: ATCC 6538, 48 h
# Staphylococcus aureus [16] = experiment: Antibiofilm activity against Staphylococcus aureus ATCC 25923 assessed as reduction in biofilm viability at 2.5 to 20 uM incubated for 24 hrs compound added prior to bacterial biofilm formation by resazurin staining based assay relative to control; type: functional
# [17] = Lipophilicity, log k of the compound at 100 ug/ml by micellar electrokinetic chromatography; type: physicochemical
# Escherichia coli [18] = experiment: Antibacterial activity against Escherichia coli ATCC 8739 cultured in MH medium assessed as reduction in bacterial growth incubated for 48 hrs by microbroth dilution method; type: functional; conditions: ATCC 8739, 48 h
# [19] = test system: Staphylococcus epidermidis; experiment: Antibacterial activity against Staphylococcus epidermidis ATCC 14990 cultured in MH medium assessed as reduction in bacterial growth incubated for 48 hrs by microbroth dilution method; type: functional; conditions: ATCC 14990, 48 h
# Bacillus spizizenii [20] = experiment: Bactericidal activity against Bacillus subtilis ATCC 6633 cultured in MH medium assessed as reduction in bacterial survival incubated for 48 hrs by microbroth dilution method; type: functional; conditions: ATCC 6633, 48 h
# Staphylococcus aureus [21] = experiment: Antibacterial activity against Staphylococcus aureus ATCC 6538 cultured in MH medium assessed as reduction in bacterial growth incubated for 48 hrs by microbroth dilution method; type: functional; conditions: ATCC 6538, 48 h
# Escherichia coli [22] = experiment: Bactericidal activity against Escherichia coli ATCC 8739 cultured in MH medium assessed as reduction in bacterial survival incubated for 48 hrs by microbroth dilution method; type: functional; conditions: ATCC 8739, 48 h
# Pseudomonas aeruginosa [23] = experiment: Biofilm degradation activity against Pseudomonas aeruginosa ATCC 9027 assessed as biofilm formation at 4 times antibacterial MIC incubated for 24 hrs compound added post-biofilm formation by total biomass crystal violet staining-based method; type: functional
# Staphylococcus aureus [24] = experiment: Antibacterial activity against methicillin resistant Staphylococcus aureus N315 cultured in MH medium assessed as reduction in bacterial growth incubated for 48 hrs by microbroth dilution method; type: functional; conditions: N315, 48 h
# Staphylococcus aureus [25] = experiment: Biofilm degradation activity against Staphylococcus aureus ATCC 6538 assessed as biofilm formation at antibacterial MIC incubated for 24 hrs compound added post-biofilm formation by total biomass crystal violet staining-based method; type: functional
# [26] = test system: Staphylococcus epidermidis; experiment: Antibacterial activity against methicillin resistant Staphylococcus epidermidis ATCC 13199 cultured in MH medium assessed as reduction in bacterial growth incubated for 48 hrs by microbroth dilution method; type: functional; conditions: ATCC 13199, 48 h
# Staphylococcus aureus [27] = experiment: Antibiofilm activity against Staphylococcus aureus ATCC 25923 assessed as reduction in biofilm biomass at >2.5 uM incubated for 24 hrs compound added prior to bacterial biofilm formation by crystal violet staining based assay; type: functional, organism-based
# HEK293 [28] = experiment: Cytotoxicity against human HEK293 cells assessed as cell viability upto 20 uM incubated for 72 hrs by MTT assay; type: cell-based; conditions: hek293, 72 h
# Staphylococcus aureus [29] = experiment: Biofilm degradation activity against Staphylococcus aureus ATCC 6538 assessed as biofilm formation at 4 times antibacterial MIC incubated for 24 hrs compound added post-biofilm formation by total biomass crystal violet staining-based method; type: functional
# Escherichia coli [30] = experiment: Bactericidal activity against […] Escherichia coli ATCC 8739 assessed as reduction in bacterial survival incubated for 48 hrs in presence of 50 ug/ml […], PAbetaN by microbroth dilution method; type: functional; conditions: ATCC 8739, 48 h
# Streptococcus pneumoniae [31] = experiment: Antibacterial activity against Streptococcus pneumoniae cultured in MH medium assessed as reduction in bacterial growth incubated for 48 hrs by microbroth dilution method; type: functional
# Pseudomonas aeruginosa [32] = experiment: Antibiofilm activity against Pseudomonas aeruginosa ATCC 9027 assessed as biofilm formation at antibacterial MIC incubated for 24 hrs compound added prior to bacterial biofilm formation by total biomass crystal violet staining-based method relative to control; type: functional
# Bacillus spizizenii [33] = experiment: Antibacterial activity against Bacillus subtilis ATCC 6633 cultured in MH medium assessed as reduction in bacterial growth incubated for 48 hrs by microbroth dilution method; type: functional; conditions: ATCC 6633, 48 h
Structure (SMILES),MBC (Proteus vulgaris [1]) [µg/mL],MBC (Staphylococcus aureus [2]) [µg/mL],Activity (Staphylococcus aureus [3]) [%],Activity (HEK293 [4]),MIC (Proteus vulgaris [5]) [µg/mL],MBC [6] [µg/mL],MBC (Streptococcus pneumoniae [7]) [µg/mL],MBC [8] [µg/mL],Activity (Pseudomonas aeruginosa [9]) [%],MBC (Pseudomonas aeruginosa [10]) [µg/mL],Activity (Pseudomonas aeruginosa [11]) [%],MIC (Enterococcus hirae) [µg/mL],Activity [12] [%],Activity [13] [%],Activity (Staphylococcus aureus [14]) [%],MBC (Serratia marcescens) [µg/mL],MBC (Staphylococcus aureus [15]) [µg/mL],inhibition (INH) (Staphylococcus aureus [16]) [%],log K [17],MIC (Escherichia coli [18]) [µg/mL],also measured
O=C(O)C1=Cc2ccccc2N2C[N+]3(CCN(c4cc5c(cc4F)c(=O)c(C(=O)O)cn5C4CC4)CC3)N=C12.[Cl-],0.063,2,28,Non-Toxic,0.063,2,512,1,49,2,26,> 512,97,34,6,2,4,100,-0.1527,2,MIC [19]: 2 µg/mL; MBC (Bacillus spizizenii [20]): 2 µg/mL; MIC (Staphylococcus aureus [21]): 4 µg/mL; MBC (Escherichia coli [22]): 2 µg/mL; Activity (Pseudomonas aeruginosa [23]): 30%; MIC (Staphylococcus aureus [24]): 4 µg/mL; Activity (Staphylococcus aureus [25]): 21%; MIC [26]: 1 µg/mL; inhibition (Staphylococcus aureus [27]): Active; Activity (HEK293 [28]): Non-Toxic; Activity (Staphylococcus aureus [29]): 10%; MBC (Escherichia coli [30]): 0.5 µg/mL; MIC (Streptococcus pneumoniae [31]): 256 µg/mL; Activity (Pseudomonas aeruginosa [32]): 13%; MIC (Bacillus spizizenii [33]): 1 µg/mL
CCn1cc(C(=O)O)c(=O)c2cc(F)c(N3CC[N+]4(CN5C(=N4)C(C(=O)O)=Cc4ccccc45)C(C)C3)c(F)c21.[Cl-] (stereo not given),0.125,16,44,Non-Toxic,0.125,4,512,2,65,1,73,512,97,11,69,2,2,100,-0.265,0.25,MIC [19]: 4 µg/mL; MBC (Bacillus spizizenii [20]): 0.5 µg/mL; MIC (Staphylococcus aureus [21]): 2 µg/mL; MBC (Escherichia coli [22]): 0.5 µg/mL; Activity (Pseudomonas aeruginosa [23]): 47%; MIC (Staphylococcus aureus [24]): 2 µg/mL; Activity (Staphylococcus aureus [25]): 60%; MIC [26]: 1 µg/mL; inhibition (Staphylococcus aureus [27]): Active; Activity (HEK293 [28]): Non-Toxic; Activity (Staphylococcus aureus [29]): 6%; MBC (Escherichia coli [30]): 0.25 µg/mL; MIC (Streptococcus pneumoniae [31]): 512 µg/mL; Activity (Pseudomonas aeruginosa [32]): 53%; MIC (Bacillus spizizenii [33]): 0.5 µg/mL
CCn1cc(C(=O)O)c(=O)c2cc(F)c(N3CC[N+]4(CC3)CN3C(=N4)C(C(=O)O)=Cc4ccccc43)nc21.[Cl-],0.5,16,21,Non-Toxic,0.25,4,512,2,61,1,52,512,100,73,18,16,8,100,-0.2387,1,MIC [19]: 4 µg/mL; MBC (Bacillus spizizenii [20]): 2 µg/mL; MIC (Staphylococcus aureus [21]): 8 µg/mL; MBC (Escherichia coli [22]): 2 µg/mL; Activity (Pseudomonas aeruginosa [23]): 42%; MIC (Staphylococcus aureus [24]): 8 µg/mL; Activity (Staphylococcus aureus [25]): 45%; MIC [26]: 2 µg/mL; inhibition (Staphylococcus aureus [27]): Active; Activity (HEK293 [28]): Non-Toxic; Activity (Staphylococcus aureus [29]): 16%; MBC (Escherichia coli [30]): 1 µg/mL; MIC (Streptococcus pneumoniae [31]): 256 µg/mL; Activity (Pseudomonas aeruginosa [32]): 16%; MIC (Bacillus spizizenii [33]): 2 µg/mL
